In ChEMBL document CHEMBL3638657, “Substituted phenylureas and phenylamides as vanilloid receptor ligands” (2015):
pKi: −log10 of the molar value.

Tests used:
[1] = target: Transient receptor potential cation channel subfamily V member 1 (Homo sapiens, UniProt Q8NER1); assay: FLIPR Assay: The agonistic or antagonistic effect of the substances to be tested on the vanilloid receptor 1 (VR1) can also be determined using the following assay. In this assay, the influx of Ca2+ through the channel is quantified with the aid of a Ca2+-sensitive dye (type Fluo-4, Molecular Probes Europe BV, Leiden, the Netherlands) in a fluorescent imaging plate reader (FLIPR, Molecular Devices, Sunnyvale, USA).Method:Chinese hamster ovary cells (CHO K1 cells, European Collection of Cell Cultures (ECACC) United Kingdom) are stably transfected with the VR1 gene. For functional testing, these cells are plated out on poly-D-lysine-coated black 96-well plates having a clear base (BD Biosciences, Heidelberg, Germany) at a density of 25,000 cells/well. The cells are incubated overnight at 37 C. and 5% CO2 in a culture medium (Ham's F12 nutrient mixture, 10% by volume of FCS (foetal calf serum), 18 ug/ml of L-proline). The next day the cells are incubated with Fluo-4.; type: cell-based
Transient receptor potential cation channel subfamily V member 1 (Homo sapiens, UniProt Q8NER1), sequence (Q8NER1 whole entry): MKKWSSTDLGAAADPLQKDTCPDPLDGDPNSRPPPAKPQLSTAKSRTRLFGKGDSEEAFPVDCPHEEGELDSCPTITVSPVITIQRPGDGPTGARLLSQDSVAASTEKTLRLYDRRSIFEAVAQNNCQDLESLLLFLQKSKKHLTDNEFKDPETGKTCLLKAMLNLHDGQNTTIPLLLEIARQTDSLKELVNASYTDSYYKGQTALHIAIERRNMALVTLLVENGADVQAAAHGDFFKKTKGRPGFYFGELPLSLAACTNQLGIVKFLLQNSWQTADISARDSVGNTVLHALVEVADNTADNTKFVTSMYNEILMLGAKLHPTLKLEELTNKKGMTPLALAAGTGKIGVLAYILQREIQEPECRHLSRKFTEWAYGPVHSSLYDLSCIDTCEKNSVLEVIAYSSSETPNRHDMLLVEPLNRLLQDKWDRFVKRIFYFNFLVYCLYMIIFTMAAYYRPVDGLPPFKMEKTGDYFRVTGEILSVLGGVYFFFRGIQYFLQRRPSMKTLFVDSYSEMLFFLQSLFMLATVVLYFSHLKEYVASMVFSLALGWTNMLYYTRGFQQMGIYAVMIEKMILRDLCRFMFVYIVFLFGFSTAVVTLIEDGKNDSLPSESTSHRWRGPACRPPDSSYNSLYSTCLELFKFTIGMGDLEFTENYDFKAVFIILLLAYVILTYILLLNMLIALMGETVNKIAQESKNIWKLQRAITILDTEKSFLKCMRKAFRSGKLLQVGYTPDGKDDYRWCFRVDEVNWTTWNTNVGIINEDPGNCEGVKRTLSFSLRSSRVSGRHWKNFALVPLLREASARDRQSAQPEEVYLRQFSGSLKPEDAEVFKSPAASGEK

[2] = target: Transient receptor potential cation channel subfamily V member 1 (Rattus norvegicus, UniProt O35433); assay: FLIPR Assay: The agonistic or antagonistic effect of the substances to be tested on the rat-species vanilloid receptor 1 (VR1/TRPV1) can be determined using the following assay. In this assay, the influx of Ca2+ through the receptor channel is quantified with the aid of a Ca2+-sensitive dye (type Fluo-4, Molecular Probes Europe BV, Leiden, the Netherlands) in a fluorescent imaging plate reader (FLIPR, Molecular Devices, Sunnyvale, USA).Method:Complete medium: 50 ml HAMS F12 nutrient mixture (Gibco Invitrogen GmbH, Karlsruhe, Germany) with10% by volume of FCS (foetal calf serum, Gibco Invitrogen GmbH, Karlsruhe, Germany, heat-inactivated);2 mM L-glutamine (Sigma, Munich, Germany);1% by weight of AA solution (antibiotic/antimyotic solution, PAA, Pasching, Austria) and 25 ng/ml NGF medium (2.5 S, Gibco Invitrogen GmbH, Karlsruhe, Germany).
Transient receptor potential cation channel subfamily V member 1 (Rattus norvegicus, UniProt O35433), sequence (O35433 whole entry): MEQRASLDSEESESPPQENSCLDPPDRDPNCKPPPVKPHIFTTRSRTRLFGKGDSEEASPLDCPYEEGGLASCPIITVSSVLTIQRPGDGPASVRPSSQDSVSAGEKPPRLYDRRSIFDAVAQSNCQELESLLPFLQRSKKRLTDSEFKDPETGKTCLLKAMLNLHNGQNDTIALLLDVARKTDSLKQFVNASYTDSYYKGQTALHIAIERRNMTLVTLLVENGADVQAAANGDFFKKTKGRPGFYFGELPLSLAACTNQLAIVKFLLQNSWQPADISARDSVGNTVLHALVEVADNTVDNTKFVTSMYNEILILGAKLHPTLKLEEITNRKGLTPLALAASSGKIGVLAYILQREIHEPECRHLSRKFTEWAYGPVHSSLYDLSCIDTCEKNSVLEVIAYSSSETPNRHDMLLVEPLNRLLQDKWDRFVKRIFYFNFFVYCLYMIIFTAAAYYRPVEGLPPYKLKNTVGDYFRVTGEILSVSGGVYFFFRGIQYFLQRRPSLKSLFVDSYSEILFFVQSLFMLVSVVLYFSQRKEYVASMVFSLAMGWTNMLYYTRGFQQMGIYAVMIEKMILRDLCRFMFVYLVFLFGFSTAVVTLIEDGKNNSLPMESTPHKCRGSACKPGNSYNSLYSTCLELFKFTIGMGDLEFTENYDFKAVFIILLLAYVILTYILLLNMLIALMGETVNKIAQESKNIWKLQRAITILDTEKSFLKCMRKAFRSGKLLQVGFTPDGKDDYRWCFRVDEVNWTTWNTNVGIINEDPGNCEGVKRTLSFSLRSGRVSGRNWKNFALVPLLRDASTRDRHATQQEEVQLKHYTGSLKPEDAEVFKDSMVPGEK

- pKi [1]: 8.10
- pKi [2]: 8.23
Compound: Cc1ccc(-n2nc(C(C)(C)C)cc2CNC(=O)C(C)c2ccc(NS(C)(=O)=O)c(F)c2)cc1 (configuration not stated)
